pIC50: −log10 of the molar value. Where a SMILES comes first, the peptide text is derived from it. The star is where a group is joined. C16 diacid = O=C(O)CCCCCCCCCCCCCCC(=O)*
Columns and labels:
mouse GIP receptor [1] = target: T1, mouse GIP receptor (Mus musculus, UniProt Q0P543); assay: cAMP accumulation, antagonism of mouse GIP(1‐42) in transfected COS‐7 cells; assay type: cell-based
T1 construct: host or cells: COS-7
T1 sequence (Q0P543 19-460): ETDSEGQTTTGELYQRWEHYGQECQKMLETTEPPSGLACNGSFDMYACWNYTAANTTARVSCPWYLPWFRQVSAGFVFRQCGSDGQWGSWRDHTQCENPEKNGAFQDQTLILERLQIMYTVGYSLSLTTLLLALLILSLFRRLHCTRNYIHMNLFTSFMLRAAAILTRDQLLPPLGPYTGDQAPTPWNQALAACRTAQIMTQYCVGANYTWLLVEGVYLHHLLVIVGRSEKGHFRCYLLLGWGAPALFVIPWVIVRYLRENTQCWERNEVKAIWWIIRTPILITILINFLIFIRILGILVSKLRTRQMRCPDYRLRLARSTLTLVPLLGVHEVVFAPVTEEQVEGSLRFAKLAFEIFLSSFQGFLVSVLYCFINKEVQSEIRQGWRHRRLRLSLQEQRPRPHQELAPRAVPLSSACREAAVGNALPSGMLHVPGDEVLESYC
Procedure: (§1) COS‐7 cells were cultured at 10% CO2 and 37°C in Dulbecco's Modified Eagle Medium 1885 supplemented with 10% foetal bovine serum, 2‐mM glutamine, 180‐units ml^−1 penicillin and […] streptomycin. Transient transfection of the cells with either human or mouse GIP receptor was performed using the calcium phosphate precipitation method as previously described (van der Velden et al., [2021]). A second set of cells was transiently transfected with either mouse GLP‐1 or GLP‐2 receptor. Following the day after transfection, the cells were seeded in white 96‐well plates with a density of 35.000 cells per well. The next day the assay was initiated by washing the cells with HEPES buffered saline (HBS) followed by an incubation step with HBS and 1‐mM 3‐isobutyl‐1‐methylxanthine for 30 min at 37°C. For agonist studies, the ligands were then added and incubated for an additional 30 min at 37°C. To test for antagonistic properties, the cells were first preincubated for 10 min with the antagonist with subsequent addition of the agonist and incubated for an additional 20 min. The HitHunter® cAMP assay (Eurofins DiscoverX, Fremont, USA) was carried out according to the manufacturer's protocol. Luminescence was measured by PerkinElmer™ Envision 2014 Multilabel Reader.
To facilitate comparisons of assay outputs (cAMP assays), the results (of duplicate measurements) were normalized, with the response to 10 pM of GIP(1‐42) set as 100%. All ligand concentrations are reported as log‐transformed. The IC50 log values can be found in Figure 1. In Figure 3c, we have subtracted glucose levels from baseline to show the net differences in glucose levels in our different treatment groups. […]
Results are presented as mean ± SE. Data were analysed with one‐way and two‐way analysis of variance (ANOVA) with Tukey's or Sidak multiple comparisons test and Student's unpaired t tests where appropriate. […] For the in vitro data IC50 values were determined by nonlinear regression using GraphPad Prism 9 (San Diego, California, USA). […]

mouse GIP receptor [2] = target: T1, mouse GIP receptor; assay: cAMP accumulation, agonism (intrinsic activity) in transfected COS‐7 cells; assay type: cell-based; settings: increasing concentrations of ligand alone, 30 min, COS‐7, n = 5
Procedure: as §1
(§2) To facilitate comparisons of assay outputs (cAMP assays), the results (of duplicate measurements) were normalized, with the response to 10 pM of GIP(1‐42) set as 100%. All ligand concentrations are reported as log‐transformed. The IC50 log values can be found in Figure 1. In Figure 3c, we have subtracted glucose levels from baseline to show the net differences in glucose levels in our different treatment groups.
(§3) FIGURE 1 In vitro signalling profile of mGIPAnt‐1 on the mouse and human glucose‐dependent insulinotropic polypeptide receptor/(GIPR). COS‐7 cells were transiently transfected with (a) mouse GIPR or (b) human GIPR and assayed for cAMP accumulation. To test for agonism, increasing concentration of the ligand was added. […]

human GIP receptor = target: T2, human GIP receptor (Homo sapiens, UniProt P48546); assay: as above; assay type: cell-based; settings: increasing concentrations of ligand alone, 30 min, COS‐7, n = 5
T2 construct: host or cells: COS-7
T2 sequence (P48546 22-466): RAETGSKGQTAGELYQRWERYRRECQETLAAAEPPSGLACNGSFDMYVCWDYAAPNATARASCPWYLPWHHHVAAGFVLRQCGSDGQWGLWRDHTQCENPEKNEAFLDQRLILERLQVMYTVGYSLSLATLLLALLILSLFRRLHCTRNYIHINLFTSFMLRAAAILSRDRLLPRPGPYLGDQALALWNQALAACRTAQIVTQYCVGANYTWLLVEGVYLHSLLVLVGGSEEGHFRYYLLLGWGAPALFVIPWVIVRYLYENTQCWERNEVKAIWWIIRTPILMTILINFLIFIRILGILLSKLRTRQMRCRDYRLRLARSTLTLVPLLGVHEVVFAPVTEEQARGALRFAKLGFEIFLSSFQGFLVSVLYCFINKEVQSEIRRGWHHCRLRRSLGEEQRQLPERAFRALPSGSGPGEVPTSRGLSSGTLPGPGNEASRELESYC
Procedure: as §1, §2, §3

[3] = system: Female ovariectomised C57Bl6/J mice; assay: Oral glucose tolerance test after 7 weeks of treatment; assay type: in vivo, mouse
Procedure: After 7 weeks HFD and mGIPAnt‐1 treatment, an oral glucose tolerance test was performed. Animals were fasted from 08:00 AM to 11:00 AM and received 2‐g·kg^−1 glucose through oral gavage. Blood glucose was measured in the tail vein samples using a hand‐held glucometer (Accu‐Chek Mobile, Roche) at t = 0, 15, 30, 45, 60, 120 and 180 min. Retro‐orbital blood samples (75 μl) were taken using EDTA coated glass capillaries at t = 0, 15, 30 and 60 min and centrifuged at 3500g, 20 min, 4°C. Plasma was transferred into Eppendorf tubes on dry ice and stored at −20°C for later analysis of insulin measurements.
Insulin levels in intraperitoneal glucose tolerance test and oral glucose tolerance test plasma samples were measured using a mouse insulin ELISA (catalogue no. 10‐1247‐10; Mercodia AB, Uppsala, Sweden). Adiponectin levels in terminal plasma samples were measured using a mouse adiponectin ELISA kit (catalogue no. 80569, Crystal Chem, Elk Grove Village, IL, USA). Adiponectin samples were carefully diluted in kit‐specific assay buffer. The manufacturer's instructions were followed closely.

Structure (SMILES): CC[C@H](C)[C@H](NC(=O)[C@H](CO)NC(=O)[C@H](Cc1ccc(O)cc1)NC(=O)[C@H](CC(=O)O)NC(=O)[C@H](CO)NC(=O)[C@@H](NC(=O)[C@H](Cc1ccccc1)NC(=O)[C@@H](NC(=O)CNC(=O)[C@@H](N)CCC(=O)O)[C@@H](C)O)[C@@H](C)CC)C(=O)N[C@@H](C)C(=O)N[C@@H](CCSC)C(=O)N[C@@H](CC(=O)O)C(=O)N[C@@H](CCCCN)C(=O)N[C@H](C(=O)N[C@@H](CCCCNC(=O)CCCCCCCCCCCCCCC(=O)O)C(=O)N[C@@H](CCC(N)=O)C(=O)N[C@@H](CCC(N)=O)C(=O)N[C@@H](CC(=O)O)C(=O)N[C@@H](Cc1ccccc1)C(=O)N[C@H](C(=O)N[C@@H](CC(N)=O)C(=O)N[C@@H](Cc1c[nH]c2ccccc12)C(=O)N[C@@H](CC(C)C)C(=O)N[C@@H](CC(C)C)C(=O)N[C@@H](C)C(=O)N[C@@H](CCC(N)=O)C(=O)N[C@@H](CCCCN)C(=O)NCC(=O)N[C@@H](CCCCN)C(=O)N[C@@H](CCCCN)C(=O)N[C@@H](CC(N)=O)C(=O)N[C@@H](CC(=O)O)C(=O)N[C@@H](Cc1c[nH]c2ccccc12)C(=O)N[C@@H](CCCCN)C(=O)N[C@@H](Cc1c[nH]cn1)C(=O)N[C@@H](CC(N)=O)C(=O)O)C(C)C)[C@@H](C)CC [mGIPAnt‐1] (H-EGTFISDYSIAMDKIK(C16 diacid)QQDFVNWLLAQKGKKNDWKHN-OH)
- pIC50 (mouse GIP receptor [1]; COS‐7 transiently transfected with mouse GIPR, 10 min preincubation with antagonist, then mouse GIP(1‐42) at 50%–80% of Emax for 20 min, HitHunter cAMP, Hill slope −1.0, n = 5 independent experiments, read-out: IC50, inhibition of mGIP‐induced cAMP accumulation, mouse GIPR): 6.57
- potency relative to mGIP(3‐30)NH2 on the mouse GIP receptor (mouse GIP receptor [1]; ratio of IC50 813 nM / 269 nM): 3 fold
- intrinsic activity (activation of mouse GIP receptor, cAMP) (mouse GIP receptor [2]): no activation
- intrinsic activity (activation of human GIP receptor, cAMP) (human GIP receptor): no activation
- glucose curve and iAUC, OGTT ([3]; 7 weeks of 300 nmol·kg−1 s.c. daily, 2 g·kg−1 oral glucose): did not affect
- insulin curve and iAUC, OGTT ([3]; 7 weeks of 300 nmol·kg−1 s.c. daily, 2 g·kg−1 oral glucose, ELISA): did not affect
- fasting insulin levels ([3]; 7 weeks of treatment): not affected
- fasting glucose levels, HFD ([3]; 7 weeks of treatment, versus Vehicle/HFD): significantly decreased

— publication PMC9544171, “Glucose‐dependent insulinotropic polypeptide receptor antagonist treatment causes a reduction in weight gain in ovariectomised high fat diet‐fed mice” (British Journal of Pharmacology, 2022)
